These results are taken from patent US20210275498A1, “IMIDAZOLYL ETHANAMIDE PENTANDIOIC ACID FOR USE IN THERAPY OF SYMPTOMS RELATED TO EXPOSURE TO LETHAL RADIATION” (priority 2018, published 2021).

The test deals with C57BL/6 mice. Description: Body weight after whole-body irradiation (response profile analysis). In kind it is in vivo. More on the design: key to Supporting variable: Body weight (trend): positive trend (descriptively) +; negative trend (descriptively) −; no difference (descriptively) 0. As to conditions: for Body weight: % Difference from Baseline (g) (difference to vehicle group 2 at Day 0) / Body weight: % Difference from Vehicle / Body weight: Estimate, change relative to vehicle group 2: 5.8 Gy; for Body weight: Estimate, change relative to vehicle group 2: Group 6 GL (SCx1): 0.34 mg/kg SC SID Day 1, 2, 3, therapeutic. As for the experimental part: Body weights were assessed twice during acclimation (including Day −3), once prior to irradiation (Day 0), and every 3 days thereafter. Terminal body weights were also collected, with the exception of Animal 4012.
The longitudinal data were analyzed taking into account the mean weight over time in each group and the covariance among the repeated measures by response profile analysis (Fitzmaurice et al., Wiley 2004, p 103-140.). The analysis was specified as a regression model with unstructured covariance to account for the correlation among repeated body weights of the same mouse and indicator variables for treatment groups and time, where the vehicle treatment was used as the reference group and Day 0 was taken as a reference for time.
The response profile analyses provide the following regression coefficients estimated by the restricted maximum likelihood (REML) method: intercept—mean body weight in the reference groups VL (POx1);2 and VH (POx1);8 at Day 0 treatment—difference between the mean body weight in the treatment groups and the vehicle groups at Day 0 time—body weight change from baseline in the reference groups treatment×time—treatment effect at each day estimated by comparison of change from baseline in the treatment groups and control groups For all regression coefficients, p-values and 95%-confidence intervals are provided. This method provides interpretable estimates, is valid if treatment groups differ at baseline, allows for arbitrary patterns in the mean body weight over time (no specific time trend e. g. linear curve assumed) and arbitrary patterns in the covariance. The analysis has certain robustness, as potential risks due to model misspecification are minimal.

Turning to `O=C(O)CCCC(=O)NCCc1c[nH]cn1` [Myelo001, 5-{[2-(1H-imidazol-4-yl)ethyl]amino}-5-oxo-pentanoic acid], the “Body weight: % Difference from Baseline (g) (difference to vehicle group 2 at Day 0)” value was -0.8 g (Day 0, Group 3 ML (IPx2): 25 mg/kg IP, Day −3 to 0 (6x), prophylactic); -0.3 g (Day 0, Group 4 ML (POx2): 25 mg/kg per os, Day −3 to 0 (6x), prophylactic); -0.3 g (Day 0, Group 5 ML (POx1): 50 mg/kg per os SID Day −2, −1, 0, prophylactic). The “Body weight: Estimate (g), change relative to vehicle Group 8” value (Day 0, Group 9 MH (POx1): 50 mg/kg per os SID Day 1, 2, 3, therapeutic, 6.0 Gy) is 0.0 g; the “Body weight: Estimate (g), change relative to vehicle Group 8” value (Day 3, Group 9 MH (POx1): 50 mg/kg per os SID Day 1, 2, 3, therapeutic, 6.0 Gy) is given as 0.2 g; the “Body weight: Estimate (g), change relative to vehicle Group 8” value (Day 9, Group 9 MH (POx1): 50 mg/kg per os SID Day 1, 2, 3, therapeutic, 6.0 Gy) is on record as 0.4 g; the “Body weight: Estimate (g), change relative to vehicle Group 8” value (Day 15, Group 9 MH (POx1): 50 mg/kg per os SID Day 1, 2, 3, therapeutic, 6.0 Gy) is reported as 1.4 g; the “Body weight: Estimate (g), change relative to vehicle Group 8” value (Day 21, Group 9 MH (POx1): 50 mg/kg per os SID Day 1, 2, 3, therapeutic, 6.0 Gy) is 3.1 g; the “Body weight: Estimate (g), change relative to vehicle Group 8” value (Day 30, Group 9 MH (POx1): 50 mg/kg per os SID Day 1, 2, 3, therapeutic, 6.0 Gy) is reported as 2.6 g. In addition, the “Body weight: % Difference from Vehicle” value was determined as 0.6 g (Day 3, Group 3 ML (IPx2): 25 mg/kg IP, Day −3 to 0 (6x), prophylactic); 0.7 g (Day 3, Group 4 ML (POx2): 25 mg/kg per os, Day −3 to 0 (6x), prophylactic); 0.4 g (Day 3, Group 5 ML (POx1): 50 mg/kg per os SID Day −2, −1, 0, prophylactic); 0.5 g (Day 9, Group 3 ML (IPx2): 25 mg/kg IP, Day −3 to 0 (6x), prophylactic); 0.6 g (Day 9, Group 4 ML (POx2): 25 mg/kg per os, Day −3 to 0 (6x), prophylactic); 0.4 g (Day 9, Group 5 ML (POx1): 50 mg/kg per os SID Day −2, −1, 0, prophylactic). Besides, the “Body weight: % Difference from Vehicle” value by setting is: (Day 15, Group 3 ML (IPx2): 25 mg/kg IP, Day −3 to 0 (6x), prophylactic) 0.1 g; (Day 15, Group 4 ML (POx2): 25 mg/kg per os, Day −3 to 0 (6x), prophylactic) -0.8 g; (Day 15, Group 5 ML (POx1): 50 mg/kg per os SID Day −2, −1, 0, prophylactic) -0.4 g; (Day 21, Group 3 ML (IPx2): 25 mg/kg IP, Day −3 to 0 (6x), prophylactic) 1.0 g; (Day 21, Group 4 ML (POx2): 25 mg/kg per os, Day −3 to 0 (6x), prophylactic) -0.7 g; (Day 21, Group 5 ML (POx1): 50 mg/kg per os SID Day −2, −1, 0, prophylactic) -0.1 g. Moreover, the “Body weight: % Difference from Vehicle” value (Day 30, Group 3 ML (IPx2): 25 mg/kg IP, Day −3 to 0 (6x), prophylactic) is recorded as 0.1 g; the “Body weight: % Difference from Vehicle” value (Day 30, Group 4 ML (POx2): 25 mg/kg per os, Day −3 to 0 (6x), prophylactic) was -1.1 g; the “Body weight: % Difference from Vehicle” value (Day 30, Group 5 ML (POx1): 50 mg/kg per os SID Day −2, −1, 0, prophylactic) amounted to 0.1 g. For the setting “Day 3 to 30, Group 9 MH (POx1): 50 mg/kg per os SID Day 1, 2, 3, therapeutic, 6.0 Gy”, the “compensation of weight loss relative to vehicle Group 8 (amounts up to)” value is “up to 3.1 g”. For the setting “Group 9 MH (POx1): 50 mg/kg per os SID Day 1, 2, 3, therapeutic, 6.0 Gy”, the “Supporting variable: Body weight (trend)” value is given as “+”.

B1: G-CSF: Neupogen (Filgrastim; Granulocyte colony-stimulating factor; G-CSF), positive control article, Amgen (protein, UniProt P09919 31-207, looked up)
Granulocyte …: TPLGPASSLPQSFLLKCLEQVRKIQGDGAALQEKLVSECATYKLCHPEELVLLGHSLGIPWAPLSSCPSQALQLAGCLSQLHSGLFLYQGLLQALEGISPELGPTLDTLQLDVADFATTIWQQMEELGMAPALQPTQGAMPAFASAFQRRAGGVLVASHLQSFLEVSYRVLRHLAQP
modifications: filgrastim
notes: Neupogen (Filgrastim; Granulocyte colony-stimulating factor; G-CSF), positive control article, Amgen
With B1, the “Body weight: Estimate, change relative to vehicle group 2” value is -0.5 g (Day 0); 0.3 g (Day 3); -0.4 g (Day 9); 0.4 g (Day 15); 3.3 g (Day 21); 0.5 g (Day 30).
